# Source: ChEMBL document CHEMBL1139353, “Discovery of a new class of potential multifunctional atypical antipsychotic agents targeting dopamine D3 and serotonin 5-HT1A and 5-HT2A receptors: design, synthesis, and effects on behavior” (J Med Chem, 2009)
# Calls of active or inactive are those of the source. No cut-off for these calls is given here.
# Legend:
# [1] = species: Mus musculus; conditions: in vivo, 0.5 h
# Description: Sedative activity in NMRI mouse assessed as reduction in spontaneous locomotor activity administered 30 mins prior to testing
# [2] = biological target: 5-hydroxytryptamine receptor 2A (Rattus norvegicus, UniProt P14842)
# Description: Displacement of [3H]ketanserin from 5HT2A receptor in CRL:CD(SD)BR-COBS rat cortex by scintillation spectrometry
# [3] = species: Mus musculus; test: animal or person; conditions: NMRI
# Description: Antipsychotic activity in NMRI mouse assessed as reduction in phencyclidine-induced locomotor activity administered 30 mins prior to testing measured for 60 mins
# [4] = biological target: T1, 5-hydroxytryptamine receptor 1A (Rattus norvegicus, UniProt P19327); test: biochemical
# T1 sequence (P19327 whole entry): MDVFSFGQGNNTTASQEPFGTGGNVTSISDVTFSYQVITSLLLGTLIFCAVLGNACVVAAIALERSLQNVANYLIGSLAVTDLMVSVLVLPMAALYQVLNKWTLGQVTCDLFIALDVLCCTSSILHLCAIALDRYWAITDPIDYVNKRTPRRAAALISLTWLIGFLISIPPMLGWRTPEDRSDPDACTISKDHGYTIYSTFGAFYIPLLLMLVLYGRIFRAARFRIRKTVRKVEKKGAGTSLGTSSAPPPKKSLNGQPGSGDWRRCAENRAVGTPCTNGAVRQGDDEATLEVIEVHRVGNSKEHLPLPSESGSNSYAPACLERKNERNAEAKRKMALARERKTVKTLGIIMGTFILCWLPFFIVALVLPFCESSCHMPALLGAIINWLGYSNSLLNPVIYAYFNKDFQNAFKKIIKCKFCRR
# Description: Displacement of [3H]8OH-DPAT from 5HT1A receptor in CRL:CD(SD)BR-COBS rat hippocampus by scintillation spectrometry
# [5] = biological target: D(3) dopamine receptor (Homo sapiens, UniProt P35462); test: biochemical
# Description: Displacement of [3H]7OH-DPAT from dopamine D3 receptor expressed in Sf9 cells by scintillation spectrometry
# [6] = biological target: Voltage-gated inwardly rectifying potassium channel KCNH2 (Homo sapiens, UniProt Q12809)
# Description: Binding affinity to human ERG expressed in HEK293 cells by whole cell patch clamp method
# [7] = species: Mus musculus; test: animal or person; conditions: NMRI; remark: listed apart in the source
# Description: Antipsychotic activity in NMRI mouse assessed as reduction in methamphetamine-induced locomotor activity administered 30 mins prior to testing measured for 60 mins
# [8] = biological target: D(1A) dopamine receptor (Rattus norvegicus, UniProt P18901)
# Description: Displacement of [3H]SCH23390 from dopamine D1 receptor in CRL:CD(SD)BR-COBS rat striatum by scintillation spectrometry
# [9] = biological target: D(1A) dopamine receptor (Rattus norvegicus) (UniProt P18901); test: Displacement of [3H]SCH23390 from dopamine D1 receptor in CRL:CD(SD)BR-COBS rat striatum at 100 uM by scintillation spectrometry
# [10] = species: Mus musculus; conditions: in vivo, sc, 1 h
# Description: Toxicity in sc dosed NMRI mouse assessed as cataleptogenic potential administered 30 mins prior to testing measured every 15 mins for 60 mins by horizontal bar test
# Sequence of D(1A) dopamine receptor (P18901 whole entry): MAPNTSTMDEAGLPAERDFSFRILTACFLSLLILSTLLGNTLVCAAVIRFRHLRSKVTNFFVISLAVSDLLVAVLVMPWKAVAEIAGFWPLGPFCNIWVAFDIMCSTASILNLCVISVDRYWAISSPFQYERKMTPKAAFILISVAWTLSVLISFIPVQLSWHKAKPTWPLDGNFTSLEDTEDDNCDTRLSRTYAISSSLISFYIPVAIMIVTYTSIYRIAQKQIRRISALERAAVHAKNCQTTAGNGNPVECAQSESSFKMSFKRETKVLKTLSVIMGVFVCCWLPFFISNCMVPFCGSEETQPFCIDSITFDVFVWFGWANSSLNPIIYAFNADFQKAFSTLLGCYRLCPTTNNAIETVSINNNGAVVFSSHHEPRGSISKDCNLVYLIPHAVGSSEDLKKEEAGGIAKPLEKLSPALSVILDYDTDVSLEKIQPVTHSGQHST
# Sequence of D(3) dopamine receptor (P35462 whole entry): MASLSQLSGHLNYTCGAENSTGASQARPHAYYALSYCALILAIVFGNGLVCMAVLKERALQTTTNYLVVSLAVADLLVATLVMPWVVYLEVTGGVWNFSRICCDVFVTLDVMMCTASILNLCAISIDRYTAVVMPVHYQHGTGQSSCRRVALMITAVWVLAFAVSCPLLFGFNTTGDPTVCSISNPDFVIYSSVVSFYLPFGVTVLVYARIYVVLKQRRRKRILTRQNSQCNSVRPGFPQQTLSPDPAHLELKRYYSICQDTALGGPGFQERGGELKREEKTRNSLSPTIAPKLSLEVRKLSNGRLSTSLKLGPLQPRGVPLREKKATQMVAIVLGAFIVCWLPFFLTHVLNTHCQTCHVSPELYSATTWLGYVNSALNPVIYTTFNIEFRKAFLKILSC
# Sequence of Voltage-gated inwardly rectifying potassium channel KCNH2 (Q12809 whole entry): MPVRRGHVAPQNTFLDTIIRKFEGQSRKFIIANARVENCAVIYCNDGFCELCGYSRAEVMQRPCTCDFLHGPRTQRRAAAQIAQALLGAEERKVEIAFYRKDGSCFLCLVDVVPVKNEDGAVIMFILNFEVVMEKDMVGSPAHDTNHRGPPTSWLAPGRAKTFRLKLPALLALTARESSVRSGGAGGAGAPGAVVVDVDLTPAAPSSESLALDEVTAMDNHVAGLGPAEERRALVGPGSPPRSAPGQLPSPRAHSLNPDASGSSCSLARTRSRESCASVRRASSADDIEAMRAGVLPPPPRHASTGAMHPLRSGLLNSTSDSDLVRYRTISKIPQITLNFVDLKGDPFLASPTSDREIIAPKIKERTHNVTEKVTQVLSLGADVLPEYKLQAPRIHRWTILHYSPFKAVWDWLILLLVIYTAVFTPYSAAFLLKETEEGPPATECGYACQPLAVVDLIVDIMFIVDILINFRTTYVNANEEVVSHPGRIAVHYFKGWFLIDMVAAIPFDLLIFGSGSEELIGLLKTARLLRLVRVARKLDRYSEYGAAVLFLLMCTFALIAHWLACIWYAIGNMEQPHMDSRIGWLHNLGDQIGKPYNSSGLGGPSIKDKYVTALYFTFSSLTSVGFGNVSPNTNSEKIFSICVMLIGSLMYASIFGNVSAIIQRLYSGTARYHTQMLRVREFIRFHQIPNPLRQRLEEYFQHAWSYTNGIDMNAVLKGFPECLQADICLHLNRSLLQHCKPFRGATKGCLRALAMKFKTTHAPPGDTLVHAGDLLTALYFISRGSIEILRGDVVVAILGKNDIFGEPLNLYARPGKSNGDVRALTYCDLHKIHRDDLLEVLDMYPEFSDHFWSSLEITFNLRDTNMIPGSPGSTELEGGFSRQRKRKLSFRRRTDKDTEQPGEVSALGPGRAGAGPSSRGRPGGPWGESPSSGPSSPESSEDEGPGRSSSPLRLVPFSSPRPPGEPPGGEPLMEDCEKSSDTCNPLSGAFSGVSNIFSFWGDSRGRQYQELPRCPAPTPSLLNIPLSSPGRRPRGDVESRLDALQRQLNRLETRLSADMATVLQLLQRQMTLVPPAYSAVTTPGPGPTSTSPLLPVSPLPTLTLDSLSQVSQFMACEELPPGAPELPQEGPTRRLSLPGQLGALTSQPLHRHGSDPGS
# Sequence of 5-hydroxytryptamine receptor 2A (P14842 whole entry): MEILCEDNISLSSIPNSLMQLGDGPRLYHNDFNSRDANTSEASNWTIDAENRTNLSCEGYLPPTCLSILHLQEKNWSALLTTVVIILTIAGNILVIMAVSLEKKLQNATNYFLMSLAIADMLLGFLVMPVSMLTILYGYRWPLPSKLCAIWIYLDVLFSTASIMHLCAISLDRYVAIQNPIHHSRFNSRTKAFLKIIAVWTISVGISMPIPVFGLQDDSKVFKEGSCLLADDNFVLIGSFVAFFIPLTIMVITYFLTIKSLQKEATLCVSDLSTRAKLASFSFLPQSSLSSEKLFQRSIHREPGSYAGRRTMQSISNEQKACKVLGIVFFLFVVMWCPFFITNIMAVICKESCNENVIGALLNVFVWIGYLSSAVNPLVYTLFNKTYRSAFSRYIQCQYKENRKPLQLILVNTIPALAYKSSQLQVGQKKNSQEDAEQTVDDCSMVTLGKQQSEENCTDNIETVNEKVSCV
# Sequence of D(1A) dopamine receptor (Rattus norvegicus) (P18901 whole entry): as the sequence (P18901 whole entry) above
Structure (SMILES),ED50 [1] [mg/kg],Ki [2] [nM],ED50 [3] [mg/kg],Ki [4] [nM],Ki [5] [nM],Ki [6] [nM],ED50 [7] [mg/kg],Ki [8] [nM],Activity [9],ED50 [10] [mg/kg]
Clc1cccc(N2CCN(CCCCCOc3cc4ccccc4cn3)CC2)c1Cl,> 30,57,> 10,18,0.14,210,> 10,–,–,–
COc1cccc2cc3n(c12)CCN(CCCCN1CCn2c(cc4ccccc42)C1=O)C3,–,200,–,33,8.6,260,–,> 10000,–,–
COc1cccc2cc3n(c12)CCN(CCCCNC(=O)C1=Cc2ccccc2CN1)C3,–,164,–,28,33.5,1840,–,> 10000,–,–
Clc1cccc(N2CCN(CCCCOc3ccc4cccnc4c3)CC2)c1Cl,–,127,–,4,8.2,–,–,–,inactive,–
O=C1c2cc3ccccc3n2CCN1CCCCN1CCN(c2cccc(Cl)c2Cl)CC1,> 30,83,> 3,9.3,0.105,200,3.7,4370,–,–
O=C(NCCCCN1CCN(c2ccc(Cl)cc2Cl)CC1)c1cc2cc(Cl)ccc2[nH]1,–,–,> 30,–,0.38,–,–,–,–,–
O=C(NCCCCN1CCN(c2cccc(Cl)c2)CC1)c1cc2ccccc2cn1,14,23.4,6.7,14.7,0.27,300,4.2,5500,–,–
O=C1c2cc3ccccc3n2CCN1CCCCN1CCN(c2ccc(Cl)cc2Cl)CC1,–,300,–,–,3.2,–,–,4320,–,–
O=C(CCCN1CCC(O)(c2ccc(Cl)cc2)CC1)c1ccc(F)cc1 [HALOPERIDOL],0.08,–,0.09,–,–,–,–,–,–,0.19
Clc1cccc(N2CCN(CCCCOc3cc4ccccc4cn3)CC2)c1Cl,–,123,–,24.2,32.9,160,–,–,–,–
N#Cc1cccc(N2CCN(CCCCN3CCn4c(cc5ccccc54)C3=O)CC2)c1,–,389,–,–,3.7,–,–,> 10000,–,–
CN1CCN(C2=Nc3cc(Cl)ccc3Nc3ccccc32)CC1 [CLOZAPINE],2.4,–,1.1,–,–,–,2.5,–,–,> 30
COc1cccc2c1C1CCN(CCCCNC(=O)C3=Cc4ccccc4CN3)CC1=N2 (stereo not given),–,149,–,118,6,–,–,> 10000,–,–
O=C(NCCCCN1CCN(c2cccc(Cl)c2Cl)CC1)c1cc2ccccc2cn1,–,41,–,5,0.099,200,–,4600,–,–
N#Cc1cccc(N2CCN(CCCCNC(=O)c3cc4ccccc4o3)CC2)c1,–,–,–,–,0.54,390,–,> 10000,–,–
Cc1cc2c(s1)Nc1ccccc1N=C2N1CCN(C)CC1 [OLANZAPINE],–,–,–,–,–,36000,–,–,–,–
O=C(NCCCCN1CCN(c2ccc(Cl)cc2Cl)CC1)c1cc2ccccc2[nH]1,–,–,> 30,–,–,–,–,–,–,–
